Measurements: publication PMC9090415, “Discovery of small molecule inhibitors of Plasmodium falciparum apicoplast DNA polymerase” (Journal of Enzyme Inhibition and Medicinal Chemistry, 2022)

Target: P. falciparum apicoplast DNA polymerase (Pf-apPOL) (Plasmodium falciparum, UniProt Q8ILY1)
Test: Fluorescence-based high-throughput DNA polymerase assay (molecular beacon), primary screen and dose-response
Assay type: biochemical
Conditions: for DNA Pol: 90 min, 10 µM; for IC50: supplemental file 2, sheet IC50 nontoxic compounds, Pf-apPOL
Outline: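 Single-point screening used 10 µM compound with 20 nM polymerase, 20 nM hairpin substrate and 6 µM dNTPs for 90 min at 25 °C. Confirmatory titrations (2.5–80 µM) followed fluorescence at three times, and IC50 was derived from a fit including a cooperativity term n.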

[1] = DRC-2, 40', concentration 20 (unit not given)
[2] = DRC-2, 5', concentration 5 (unit not given)
[3] = primary screen value of the 186 hits, unit not given
[4] = primary screen value, head "DNA Pol", unit not given

Chain of P. falciparum apicoplast DNA polymerase (Pf-apPOL) (Q8ILY1 entry or part of it): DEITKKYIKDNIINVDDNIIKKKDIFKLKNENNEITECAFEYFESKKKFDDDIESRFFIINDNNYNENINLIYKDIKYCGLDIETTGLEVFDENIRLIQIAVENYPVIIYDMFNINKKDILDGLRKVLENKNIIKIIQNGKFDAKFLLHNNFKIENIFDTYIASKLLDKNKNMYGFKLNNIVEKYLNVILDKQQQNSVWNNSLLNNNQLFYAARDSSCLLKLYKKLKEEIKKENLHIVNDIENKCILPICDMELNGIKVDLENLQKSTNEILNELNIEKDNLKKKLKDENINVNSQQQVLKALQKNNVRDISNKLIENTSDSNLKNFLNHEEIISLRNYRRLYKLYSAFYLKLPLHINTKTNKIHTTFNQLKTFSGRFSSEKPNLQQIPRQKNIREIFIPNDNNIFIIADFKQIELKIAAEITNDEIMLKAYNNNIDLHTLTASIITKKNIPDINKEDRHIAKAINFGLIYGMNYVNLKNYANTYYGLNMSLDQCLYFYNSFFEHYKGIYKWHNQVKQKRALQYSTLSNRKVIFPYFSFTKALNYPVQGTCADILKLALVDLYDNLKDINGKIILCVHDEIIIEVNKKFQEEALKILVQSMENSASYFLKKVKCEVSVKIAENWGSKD

O=C(Cn1ccc2c(=O)[nH]ccc21)Nc1ccc(Cl)cc1 [Molecule 36, O=C(Cn1ccc2c1cc[nH]c2=O)Nc1ccc(cc1)Cl]
% inhibition Apo pol 10' (DRC-1, concentration 2.5): 6.801%
% inhibition Apo pol 10' (DRC-1, concentration 5): 22.3776%
% inhibition Apo pol 10' (DRC-1, concentration 10): 24.792%
% inhibition Apo pol 10' (DRC-1, concentration 20): 79.2996%
% inhibition Apo pol 10' (DRC-1, concentration 40): 82.0585%
% inhibition Apo pol 10' (DRC-1, concentration 80): 79.648%
% inhibition Apol 90' (DRC-1, 90', concentration 2.5): -0.4643%
% inhibition Apol 90' (DRC-1, 90', concentration 5): 11.3565%
% inhibition Apol 90' (DRC-1, 90', concentration 10): 14.0157%
% inhibition Apol 90' (DRC-1, 90', concentration 20): 73.6159%
% inhibition Apol 90' (DRC-1, 90', concentration 40): 79.7069%
% inhibition Apol 90' (DRC-1, 90', concentration 80): 82.9478%
% inhibition apPOL 180' (DRC-1, 180', concentration 2.5): -6.005%
% inhibition apPOL 180' (DRC-1, 180', concentration 5): 0.9781%
% inhibition apPOL 180' (DRC-1, 180', concentration 10): 3.9308%
% inhibition apPOL 180' (DRC-1, 180', concentration 20): 61.1275%
% inhibition apPOL 180' (DRC-1, 180', concentration 40): 73.0225%
% inhibition apPOL 180' (DRC-1, 180', concentration 80): 82.2877%
% inhibition Apo pol 5' (DRC-2, 5', concentration 10 (unit not given)): 44%
% inhibition Apo pol 5' (DRC-2, 5', concentration 20 (unit not given)): 44%
% inhibition Apol 40' (DRC-2, 40', concentration 10 (unit not given)): 57%
% inhibition Apol 40' [1]: 63%
% inhibition Apol 40' (DRC-2, 40', concentration 40 (unit not given)): 63%
% inhibition ApPOL 90' (DRC-2, 90', concentration 5 (unit not given)): 20%
% inhibition ApPOL 90' (DRC-2, 90', concentration 10 (unit not given)): 57%
% inhibition ApPOL 90' (DRC-2, 90', concentration 40 (unit not given)): 67%
% inhibition apPOL 180' (DRC-2, 180', concentration 20 (unit not given)): 63%
% inhibition apPOL 180' (DRC-2, 180', concentration 80 (unit not given)): 67%
% inhibition Apo pol 5' (DRC-2, 5', concentration 2.5): 0%
% inhibition Apo pol 5' (DRC-2, 5', concentration 5): 20%
% inhibition Apo pol 5' [2]: 20%
% inhibition Apo pol 5' (DRC-2, 5', concentration 10): 44%
% inhibition Apo pol 5' (DRC-2, 5', concentration 20): 44%
% inhibition Apo pol 5' (DRC-2, 5', concentration 40): 41%
% inhibition Apo pol 5' (DRC-2, 5', concentration 80): 30%
% inhibition Apol 40' (DRC-2, 40', concentration 2.5): -0.111%
% inhibition Apol 40' (DRC-2, 40', concentration 5): 24%
% inhibition Apol 40' (DRC-2, 40', concentration 10): 57%
% inhibition Apol 40' (DRC-2, 40', concentration 20): 63%
% inhibition Apol 40' (DRC-2, 40', concentration 40): 63%
% inhibition Apol 40' (DRC-2, 40', concentration 80): 56%
% inhibition ApPOL 90' (DRC-2, 90', concentration 2.5): -2%
% inhibition ApPOL 90' (DRC-2, 90', concentration 5): 20%
% inhibition ApPOL 90' (DRC-2, 90', concentration 10): 57%
% inhibition ApPOL 90' (DRC-2, 90', concentration 20): 66%
% inhibition ApPOL 90' (DRC-2, 90', concentration 40): 67%
% inhibition ApPOL 90' (DRC-2, 90', concentration 80): 61%
% inhibition apPOL 180' (DRC-2, 180', concentration 2.5): -7%
% inhibition apPOL 180' (DRC-2, 180', concentration 5): 11%
% inhibition apPOL 180' (DRC-2, 180', concentration 10): 48%
% inhibition apPOL 180' (DRC-2, 180', concentration 20): 63%
% inhibition apPOL 180' (DRC-2, 180', concentration 40): 69%
% inhibition apPOL 180' (DRC-2, 180', concentration 80): 67%
DNA Pol [3]: 46
DNA Pol [4]: 46

Cc1cccc(-c2nnc3ccc(NS(=O)(=O)c4ccc(C)c(C)c4)nn23)c1 [Molecule 40]
IC50: 10.1 µM

N#Cc1c(C2CCCCC2)nc(Sc2ccc(C(F)(F)F)cc2[N+](=O)[O-])[nH]c1=O [Molecule 20]
IC50: 8.81 µM

O=C(O)CC1SC(c2ccc3c(c2)OCO3)=NC1=O (stereo not shown) [Molecule 69]
IC50: 29.2 µM

O=C1C(=Cc2ccncc2)Oc2c1ccc1c2CN(Cc2ccc3c(c2)OCO3)CO1 [KU0199357]
% inhibition Apo pol 10' (DRC-1, concentration 2.5): -2.582%
% inhibition Apo pol 10' (DRC-1, concentration 5): 7.288%
% inhibition Apo pol 10' (DRC-1, concentration 10): 20.9046%
% inhibition Apo pol 10' (DRC-1, concentration 20): 43.4481%
% inhibition Apo pol 10' (DRC-1, concentration 40): 58.0959%
% inhibition Apo pol 10' (DRC-1, concentration 80): 67.6881%
% inhibition Apol 90' (DRC-1, 90', concentration 2.5): 5.905%
% inhibition Apol 90' (DRC-1, 90', concentration 5): 17.1592%
% inhibition Apol 90' (DRC-1, 90', concentration 10): 34.0534%
% inhibition Apol 90' (DRC-1, 90', concentration 20): 57.2301%
% inhibition Apol 90' (DRC-1, 90', concentration 40): 66.3839%
% inhibition Apol 90' (DRC-1, 90', concentration 80): 71.081%
% inhibition apPOL 180' (DRC-1, 180', concentration 2.5): 18.2%
% inhibition apPOL 180' (DRC-1, 180', concentration 5): 33.6281%
% inhibition apPOL 180' (DRC-1, 180', concentration 10): 52.8401%
% inhibition apPOL 180' (DRC-1, 180', concentration 20): 75.9569%
% inhibition apPOL 180' (DRC-1, 180', concentration 40): 84.0502%
% inhibition apPOL 180' (DRC-1, 180', concentration 80): 84.7923%
% inhibition Apo pol 5' (DRC-2, 5', concentration 2.5): 6%
% inhibition Apo pol 5' (DRC-2, 5', concentration 5): 15%
% inhibition Apo pol 5' (DRC-2, 5', concentration 10): 35%
% inhibition Apo pol 5' (DRC-2, 5', concentration 20): 37%
% inhibition Apo pol 5' (DRC-2, 5', concentration 40): 46%
% inhibition Apo pol 5' (DRC-2, 5', concentration 80): 40%
% inhibition Apol 40' (DRC-2, 40', concentration 2.5): 1.87%
% inhibition Apol 40' (DRC-2, 40', concentration 5): 3%
% inhibition Apol 40' (DRC-2, 40', concentration 10): 31%
% inhibition Apol 40' (DRC-2, 40', concentration 20): 32%
% inhibition Apol 40' (DRC-2, 40', concentration 40): 39%
% inhibition Apol 40' (DRC-2, 40', concentration 80): 34%
% inhibition ApPOL 90' (DRC-2, 90', concentration 2.5): -1.19%
% inhibition ApPOL 90' (DRC-2, 90', concentration 5): -9%
% inhibition ApPOL 90' (DRC-2, 90', concentration 10): 26%
% inhibition ApPOL 90' (DRC-2, 90', concentration 20): 27%
% inhibition ApPOL 90' (DRC-2, 90', concentration 40): 36%
% inhibition ApPOL 90' (DRC-2, 90', concentration 80): 34%
% inhibition apPOL 180' (DRC-2, 180', concentration 2.5): -7%
% inhibition apPOL 180' (DRC-2, 180', concentration 5): -87%
% inhibition apPOL 180' (DRC-2, 180', concentration 10): 11%
% inhibition apPOL 180' (DRC-2, 180', concentration 20): 13%
% inhibition apPOL 180' (DRC-2, 180', concentration 40): 28%
% inhibition apPOL 180' (DRC-2, 180', concentration 80): 35%
% inhibition Apo pol 5' (conc. 10, 5', DRC-2): 35%
% inhibition Apol 40' (conc. 80, 40', DRC-2): 34%
% inhibition ApPOL 90' (conc. 80, 90', DRC-2): 34%
% inhibition apPOL 180' (conc. 80, 180', DRC-2): 35%
DNA Pol (primary screen value by plate and well): 32
DNA Pol [3]: 32

O=C(Cc1cc(=O)[nH]c(SCc2ccccc2)n1)Nc1ccc2c(c1)OCO2 [Molecule 46]
IC50: 15.5 µM

Cc1cc(C)c2c(c1)C1C=CCC1C(c1ccc(C(=O)O)cc1)N2 (stereo not shown) [Molecule 102]
IC50: 2.89 µM

C=CC1=C(C)c2cc3[nH]c(cc4nc(cc5[nH]c(cc1n2)c(C)c5CCC(=O)O)C(CCC(=O)O)=C4C)c(C)c3C=C [Molecule 91]
IC50: < 2.5 µM

CCCCSc1nnc2c(n1)OC(c1ccc([N+](=O)[O-])o1)Nc1ccccc1-2 (stereo not shown) [KU0065811]
% inhibition Apo pol 10' (DRC-1, concentration 2.5): 24.76%
% inhibition Apo pol 10' (DRC-1, concentration 5): 28.8752%
% inhibition Apo pol 10' (DRC-1, concentration 10): 64.0477%
% inhibition Apo pol 10' (DRC-1, concentration 20): 79.0403%
% inhibition Apo pol 10' (DRC-1, concentration 40): 87.9065%
% inhibition Apo pol 10' (DRC-1, concentration 80): 83.2493%
% inhibition Apol 90' (DRC-1, 90', concentration 2.5): 16.1067%
% inhibition Apol 90' (DRC-1, 90', concentration 5): 15.8932%
% inhibition Apol 90' (DRC-1, 90', concentration 10): 47.3098%
% inhibition Apol 90' (DRC-1, 90', concentration 20): 63.8014%
% inhibition Apol 90' (DRC-1, 90', concentration 40): 80.4903%
% inhibition Apol 90' (DRC-1, 90', concentration 80): 83.7363%
% inhibition apPOL 180' (DRC-1, 180', concentration 2.5): 8.192%
% inhibition apPOL 180' (DRC-1, 180', concentration 5): 3.59%
% inhibition apPOL 180' (DRC-1, 180', concentration 10): 30.0435%
% inhibition apPOL 180' (DRC-1, 180', concentration 20): 48.0622%
% inhibition apPOL 180' (DRC-1, 180', concentration 40): 73.3106%
% inhibition apPOL 180' (DRC-1, 180', concentration 80): 82.0141%
% inhibition Apol 40' (DRC-2, 40', concentration 5 (unit not given)): 36%
% inhibition Apol 40' [1]: 59%
% inhibition ApPOL 90' (DRC-2, 90', concentration 20 (unit not given)): 59%
% inhibition Apo pol 5' (DRC-2, 5', concentration 2.5): 27%
% inhibition Apo pol 5' (DRC-2, 5', concentration 5): 36%
% inhibition Apo pol 5' [2]: 36%
% inhibition Apo pol 5' (DRC-2, 5', concentration 10): 51%
% inhibition Apo pol 5' (DRC-2, 5', concentration 20): 47%
% inhibition Apo pol 5' (DRC-2, 5', concentration 40): 37%
% inhibition Apo pol 5' (DRC-2, 5', concentration 80): 13%
% inhibition Apol 40' (DRC-2, 40', concentration 2.5): 25%
% inhibition Apol 40' (DRC-2, 40', concentration 5): 36%
% inhibition Apol 40' (DRC-2, 40', concentration 10): 55%
% inhibition Apol 40' (DRC-2, 40', concentration 20): 59%
% inhibition Apol 40' (DRC-2, 40', concentration 40): 57%
% inhibition Apol 40' (DRC-2, 40', concentration 80): 42%
% inhibition ApPOL 90' (DRC-2, 90', concentration 2.5): 22%
% inhibition ApPOL 90' (DRC-2, 90', concentration 5): 32%
% inhibition ApPOL 90' (DRC-2, 90', concentration 10): 52%
% inhibition ApPOL 90' (DRC-2, 90', concentration 20): 59%
% inhibition ApPOL 90' (DRC-2, 90', concentration 40): 62%
% inhibition ApPOL 90' (DRC-2, 90', concentration 80): 50%
% inhibition apPOL 180' (DRC-2, 180', concentration 2.5): 11%
% inhibition apPOL 180' (DRC-2, 180', concentration 5): 19%
% inhibition apPOL 180' (DRC-2, 180', concentration 10): 41%
% inhibition apPOL 180' (DRC-2, 180', concentration 20): 53%
% inhibition apPOL 180' (DRC-2, 180', concentration 40): 64%
% inhibition apPOL 180' (DRC-2, 180', concentration 80): 58%
DNA Pol [3]: 52
DNA Pol [4]: 52
